Measured values as given in patent publication US6649421B1, “Antibodies against phoshorylated VASP (vasodilator-stimulated phosphoprotein), hybridoma cells for their preparation, and their use” (Vasopharm Biotech GmbH, priority 1997, dated 2003).

Tested on: VASP phosphorylation in rat thrombocytes
Assay: Western blot of VASP phosphorylation in rat thrombocytes
Type: cell-based
Conditions: 5 min incubation
Experimental: Rat thrombocytes (0.7×10^9 cell/ml) were incubated for 5 min with 100 μM sodium nitroprusside (SNP), with 10 μM prostaglandin E1(PgE1) or without either of these additions. The extracts of these rat thrombocytes were analyzed by Western blotting. […] Similar results are also obtained using mouse thrombocytes.

## CCCCC[C@H](O)/C=C/[C@H]1[C@H](O)CC(=O)[C@@H]1CCCCCCC(=O)O [PgE1, prostaglandin E1]
  Phosphorylation-dependent shift of VASP from 46 kDa to 50 kDa (serine 157 phosphorylation): also took place in rat thrombocytes
  Phosphorylation-dependent signal given by the 16C2 antibody (serine 239 phosphorylation): also took place in rat thrombocytes
